{"source": "patent US9663536B2", "about": "“Inhibitors of human immunodeficiency virus replication” (priority 2013, dated 2017)", "note": "pEC50: −log10 of the molar value."}
{"system": "recombinant NL-Rluc virus", "assay": "Inhibition of HIV replication (NL-Rluc virus in MT-2 cells, luciferase readout)", "type": "cell-based", "conditions": "Human immunodeficiency virus 1, MT2, 120 h"}
{"compound": "Cc1nc2cc3nn2c(c1[C@H](OC(C)(C)C)C(=O)O)N1CCC(C)(CC1)OC/C=C/Cc1ccccc1Cc1cnc-3s1", "note": "(single isomer, unassigned) [Example 1]", "pEC50": 8.70}
{"compound": "Cc1nc2cc3nn2c(c1[C@H](OC(C)(C)C)C(=O)O)N1CCC(C)(CC1)OC/C=C\\CCc1ccccc1Cc1cnc-3s1", "note": "(single isomer, unassigned) [Example 2]", "pEC50": 8.70}
{"compound": "Cc1nc2cc3nn2c(c1[C@H](OC(C)(C)C)C(=O)O)N1CCC(C)(/C=C/CCCCc2cc(F)ccc2Cc2cnc-3s2)CC1", "note": "(single isomer, unassigned) [Example 15]", "pEC50": 7.89}
{"compound": "Cc1nc2cc3nn2c(c1[C@H](OC(C)(C)C)C(=O)O)N1CCC(C)(/C=C/CCCc2cc(F)ccc2Cc2cnc-3s2)CC1", "note": "(single isomer, unassigned) [Example 16]", "pEC50": 7.92}
{"compound": "Cc1nc2cc3nn2c(c1[C@H](OC(C)(C)C)C(=O)O)N1CCC(C)(CC/C=C/CCc2cc(F)ccc2Cc2cnc-3s2)CC1", "note": "(single isomer, unassigned) [Example 17]", "pEC50": 7.74}
{"compound": "Cc1nc2cc3nn2c(c1[C@H](OC(C)(C)C)C(=O)O)N1CCC(C)(C/C=C/CCc2cc(F)ccc2Cc2cnc-3s2)CC1", "note": "(single isomer, unassigned) [Example 18]", "pEC50": 7.96}
{"compound": "Cc1nc2cc3nn2c(c1[C@H](OC(C)(C)C)C(=O)O)N1CCC(C)(CC/C=C/CCc2ccc(F)cc2Cc2cnc-3s2)CC1", "note": "(single isomer, unassigned) [Example 21]", "pEC50": 7.89}
{"compound": "Cc1nc2cc3nn2c(c1[C@H](OC(C)(C)C)C(=O)O)N1CCC(C)(CC/C=C\\CCc2ccc(F)cc2Cc2cnc-3s2)CC1", "note": "(single isomer, unassigned) [Example 22]", "pEC50": 7.46}
{"compound": "Cc1nc2cc3nn2c(c1[C@H](OC(C)(C)C)C(=O)O)N1CCC(C)(C/C=C/CCc2ccc(F)cc2Cc2cnc-3s2)CC1", "note": "(single isomer, unassigned) [Example 23]", "pEC50": 8.15}
{"compound": "Cc1nc2cc3nn2c(c1[C@H](OC(C)(C)C)C(=O)O)N1CCC(C)(CC1)OC/C=C/CCc1cccc(c1)Cc1cnc-3s1", "note": "[Example 3, (2S)-2-(tert-Butoxy)-2-[(22E)-4,26-dimethyl-25-oxa-32-thia-1,5,7,8,11-pentaazahexacyclo[24.2.2.1^6,9.1^10,13.1^15,19.0^2,7]tritriaconta-2,4,6(33),8,10,12,15(31),16,18,22-decaen-3-yl]acetic acid]", "pEC50": 8.52}
{"compound": "Cc1nc2cc3nn2c(c1[C@H](OC(C)(C)C)C(=O)O)N1CCC(C)(CC1)OCCCCCc1cccc(c1)Cc1cnc-3s1", "note": "[Example 4, (2S)-2-(tert-Butoxy)-2-{4,26-dimethyl-25-oxa-32-thia-1,5,7,8,11-pentaazahexacyclo[24.2.2.1^6,9.1^10,13.1^15,19.0^2,7]tritriaconta-2,4,6(33),8,10,12,15(31),16,18-nonaen-3-yl}acetic acid]", "pEC50": 7.66}
{"compound": "Cc1nc2cc3nn2c(c1[C@H](OC(C)(C)C)C(=O)O)N1CCC(C)(CC1)OCCCCOc1ccccc1Cc1cnc-3s1", "note": "[Example 5, (2S)-2-(tert-Butoxy)-2-{4,27-dimethyl-21,26-dioxa-32-thia-1,5,7,8,11-pentaazahexacyclo[25.2.2.1^6,9.1^10,13.0^2,7.0^15,20]tritriaconta-2,4,6(33),8,10,12,15(20),16,18-nonaen-3-yl}Acetic Acid]", "pEC50": 8.22}
{"compound": "Cc1nc2cc3nn2c(c1[C@H](OC(C)(C)C)C(=O)O)N1CCC(C)(CC1)OCCCCOc1ccccc1Cc1cnc-3o1", "note": "[Example 6, (2S)-2-(tert-Butoxy)-2-{4,27-dimethyl-21,26,32-trioxa-1,5,7,8,11-pentaazahexacyclo[25.2.2.1^6,9.1^10,13.0^2,7.0^15,20]tritriaconta-2,4,6(33),8,10,12,15(20),16,18-nonaen-3-yl}acetic acid]", "pEC50": 8.40}
{"compound": "Cc1nc2cc3nn2c(c1[C@H](OC(C)(C)C)C(=O)O)N1CCC(C)(CC1)OCC=CCOc1ccccc1Cc1cnc-3s1", "note": "[Example 7, (2S)-2-(tert-Butoxy)-2-[4,27-dimethyl-21,26-dioxa-32-thia-1,5,7,8,11-pentaazahexacyclo[25.2.2.1^6,9.1^10,13.0^2,7.0^15,20]tritriaconta-2,4,6(33),8,10,12,15(20),16,18,23-decaen-3-yl]acetic acid]", "pEC50": 8.22}
